Data set [1] has as its target T1, Growth hormone secretagogue receptor type 1 (Homo sapiens, UniProt Q92847). Kind of data set: Agonist activity at human GHS receptor expressed in H4 glioma cells. The data set is classed as cell-based.
Data set [2] concerns the target T1, Growth hormone secretagogue receptor type 1. Kind of data set: Agonist activity at human GHS receptor expressed in H4 glioma cells assessed as intracellular calcium concentration by FLIPR assay. The data set is classed as functional, cell-based.
Data set [3] relates to Rattus norvegicus. The experiment in a line: Increase in plasma GH level in acute anesthetized iv dosed Wistar rat model. The data set is classed as functional.
Data set [4] in a line: Oral bioavailability in rat. The data set is classed as ADME, organism-based. To be noted: in vivo.
Data set [5] is described as follows: Oral bioavailability in dog. The data set is classed as ADME, organism-based, Canis lupus familiaris. The note with it: in vivo.
Data set [6] has as its target T2, Cytochrome P450 1A2 (Homo sapiens, UniProt P05177).
T2 sequence (P05177 whole entry): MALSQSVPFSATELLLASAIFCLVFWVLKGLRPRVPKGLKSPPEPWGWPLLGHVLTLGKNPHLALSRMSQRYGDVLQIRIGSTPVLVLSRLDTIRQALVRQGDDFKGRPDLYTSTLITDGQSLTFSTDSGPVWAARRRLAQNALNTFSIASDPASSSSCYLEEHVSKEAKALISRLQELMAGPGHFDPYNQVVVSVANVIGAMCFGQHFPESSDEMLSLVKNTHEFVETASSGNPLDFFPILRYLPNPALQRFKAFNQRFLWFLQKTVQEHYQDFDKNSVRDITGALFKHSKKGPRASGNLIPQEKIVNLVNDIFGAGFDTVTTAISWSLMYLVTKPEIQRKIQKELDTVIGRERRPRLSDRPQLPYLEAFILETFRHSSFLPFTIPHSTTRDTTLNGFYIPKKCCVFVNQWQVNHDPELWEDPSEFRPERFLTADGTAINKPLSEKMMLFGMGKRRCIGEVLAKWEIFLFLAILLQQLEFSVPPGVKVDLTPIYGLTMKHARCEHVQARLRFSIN
The experiment in a line: Inhibition of CYP1A2. Format: ADME.

Data set [7] addresses Cytochrome P450 2C9 (Homo sapiens, UniProt P11712). The experiment in a line: Inhibition of CYP2C9. The data set is classed as ADME.
Data set [8] has as its target Cytochrome P450 2C19 (Homo sapiens, UniProt P33261). The experiment in a line: Inhibition of CYP2C19. The data set is classed as ADME.
Data set [9] has as its target Cytochrome P450 2D6 (Homo sapiens, UniProt P10635). The experiment in a line: Inhibition of CYP2D6. The data set is classed as ADME.
Data set [10] deals with T3, Cytochrome P450 3A4 (Homo sapiens, UniProt P08684). The experiment in a line: Inhibition of CYP3A4 using 7-benzyloxy-4-trifluoromethylcoumarin as a substrate. The data set is classed as ADME.
T3 sequence (P08684 whole entry): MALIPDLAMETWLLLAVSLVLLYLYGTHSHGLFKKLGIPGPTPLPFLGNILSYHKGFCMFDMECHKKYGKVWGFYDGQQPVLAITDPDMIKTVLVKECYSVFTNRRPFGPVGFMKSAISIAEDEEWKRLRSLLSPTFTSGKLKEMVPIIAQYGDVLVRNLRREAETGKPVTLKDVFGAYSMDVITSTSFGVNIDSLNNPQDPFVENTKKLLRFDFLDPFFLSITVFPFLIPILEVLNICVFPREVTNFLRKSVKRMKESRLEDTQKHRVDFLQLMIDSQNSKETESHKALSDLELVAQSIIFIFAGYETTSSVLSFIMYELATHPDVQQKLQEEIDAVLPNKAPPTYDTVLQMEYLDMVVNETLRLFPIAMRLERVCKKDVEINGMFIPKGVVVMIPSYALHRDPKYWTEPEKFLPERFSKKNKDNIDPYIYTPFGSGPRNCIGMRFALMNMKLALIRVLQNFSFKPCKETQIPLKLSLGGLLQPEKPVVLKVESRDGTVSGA
Data set [11] deals with T3, Cytochrome P450 3A4. The experiment in a line: Inhibition of CYP3A4 using 7-benzyloxyresorufin as a substrate. Format: ADME.

Experimental findings from ChEMBL document CHEMBL1141598, “Optimization of 1H-tetrazole-1-alkanenitriles as potent orally bioavailable growth hormone secretagogues” (Bioorg Med Chem Lett, 2008) are described below.

T1 sequence (Q92847 whole entry): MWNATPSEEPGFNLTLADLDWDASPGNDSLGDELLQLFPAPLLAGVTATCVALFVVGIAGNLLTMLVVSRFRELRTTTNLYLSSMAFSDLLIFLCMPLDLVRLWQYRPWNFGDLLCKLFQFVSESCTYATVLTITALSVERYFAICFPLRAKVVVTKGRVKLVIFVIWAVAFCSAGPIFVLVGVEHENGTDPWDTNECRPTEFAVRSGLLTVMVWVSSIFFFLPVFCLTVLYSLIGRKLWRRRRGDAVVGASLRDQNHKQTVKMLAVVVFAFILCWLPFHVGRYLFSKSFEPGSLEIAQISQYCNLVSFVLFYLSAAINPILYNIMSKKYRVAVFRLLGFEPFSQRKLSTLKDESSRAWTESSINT
Chain of Cytochrome P450 2C9 (P11712 whole entry): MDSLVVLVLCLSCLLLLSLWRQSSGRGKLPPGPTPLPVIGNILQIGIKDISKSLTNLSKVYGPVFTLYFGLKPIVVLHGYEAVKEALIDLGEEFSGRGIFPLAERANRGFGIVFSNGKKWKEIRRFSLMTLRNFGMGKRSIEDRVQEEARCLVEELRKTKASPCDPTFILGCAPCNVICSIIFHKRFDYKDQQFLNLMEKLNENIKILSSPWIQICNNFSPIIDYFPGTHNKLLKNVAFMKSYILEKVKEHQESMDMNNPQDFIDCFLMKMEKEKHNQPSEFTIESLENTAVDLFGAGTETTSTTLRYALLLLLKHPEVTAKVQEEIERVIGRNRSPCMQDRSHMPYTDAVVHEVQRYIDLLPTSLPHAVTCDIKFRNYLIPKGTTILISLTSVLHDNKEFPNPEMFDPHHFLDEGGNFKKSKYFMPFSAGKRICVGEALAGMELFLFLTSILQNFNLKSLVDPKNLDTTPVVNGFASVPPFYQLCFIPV
Chain of Cytochrome P450 2D6 (P10635 whole entry): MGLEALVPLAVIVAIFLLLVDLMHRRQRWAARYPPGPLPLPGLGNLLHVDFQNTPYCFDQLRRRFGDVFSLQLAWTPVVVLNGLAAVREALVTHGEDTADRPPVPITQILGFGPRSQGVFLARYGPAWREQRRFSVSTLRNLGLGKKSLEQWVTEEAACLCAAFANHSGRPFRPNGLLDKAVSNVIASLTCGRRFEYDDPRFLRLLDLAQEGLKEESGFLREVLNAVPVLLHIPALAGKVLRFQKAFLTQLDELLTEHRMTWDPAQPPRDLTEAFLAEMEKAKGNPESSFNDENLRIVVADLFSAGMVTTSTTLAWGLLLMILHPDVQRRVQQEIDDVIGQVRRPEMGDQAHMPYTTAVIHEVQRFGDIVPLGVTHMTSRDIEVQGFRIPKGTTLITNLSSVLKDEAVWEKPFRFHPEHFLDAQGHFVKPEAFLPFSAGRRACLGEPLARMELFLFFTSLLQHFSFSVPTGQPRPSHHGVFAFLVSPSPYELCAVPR
Chain of Cytochrome P450 2C19 (P33261 whole entry): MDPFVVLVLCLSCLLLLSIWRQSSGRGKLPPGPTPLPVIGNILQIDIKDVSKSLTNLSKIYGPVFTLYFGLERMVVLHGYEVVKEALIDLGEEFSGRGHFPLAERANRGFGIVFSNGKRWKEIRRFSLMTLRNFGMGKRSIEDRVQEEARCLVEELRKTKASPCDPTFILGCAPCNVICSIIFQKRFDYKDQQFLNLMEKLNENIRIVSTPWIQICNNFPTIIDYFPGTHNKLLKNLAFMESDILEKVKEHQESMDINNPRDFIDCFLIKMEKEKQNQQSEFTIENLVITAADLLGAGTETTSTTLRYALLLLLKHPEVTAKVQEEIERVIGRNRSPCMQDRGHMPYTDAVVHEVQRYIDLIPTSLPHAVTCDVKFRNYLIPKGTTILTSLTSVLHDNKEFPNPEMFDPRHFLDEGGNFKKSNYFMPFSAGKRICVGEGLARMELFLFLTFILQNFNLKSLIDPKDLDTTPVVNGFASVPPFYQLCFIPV

Usually Ki stands for a dissociation constant, usually derived from enzyme kinetics or from competition with a known ligand. One may read the EC50 as the concentration giving half of the maximal effect. With `CC(C)(N)C(=O)N[C@H](COCc1ccccc1)c1nnnn1[C@@H](CC#N)COc1ccccn1`, the Ki in data set [1] came out at 503 nM. Also, in [2], the EC50 is 19 nM.
For the molecule `CC(C)(N)C(=O)N[C@H](COCc1ccccc1)c1nnnn1C(CC#N)COc1ccccc1F` (single isomer, unassigned; diastereomer 2), the affinity in data set [1] corresponds to a Ki of 696 nM. Moreover, in [2], the EC50 was found to be 64 nM.
Take `CC(C)(N)C(=O)N[C@H](COCc1ccccc1)c1nnnn1[C@@H](CC#N)COc1ccccc1O`: affinity in data set [1] was put at a Ki of 240 nM. For the same molecule, the EC50 in [2] worked out at 23 nM.
As a reminder, the bioavailability is dose-corrected exposure relative to a reference, in per cent. Lower therefore signals little systemic uptake. One may read the IC50 as the concentration that inhibits the measured activity by half. High values mean weaker potency in that assay, low ones greater potency in that assay. In turn, `CC(C)(N)C(=O)N[C@H](COCc1ccccc1)c1nnnn1[C@H](CC#N)COc1ccccn1` showed a Ki in [1] of 40 nM. Further, the EC50 in data set [2] is 0.4 nM. In data set [3], this molecule yielded an ED250 of 0.33 µmol/kg. The figures for the bioavailability in data set [4] and in data set [5] were 24% and 55%, respectively. Further, the IC50 was > 100000 nM in data set [6]; > 100000 nM in data set [7]; 33000 nM in data set [8]; > 100000 nM in data set [9]; 59000 nM in [10]; 11000 nM in [11].
As for `CC(C)(N)C(=O)N[C@H](COCc1ccccc1)c1nnnn1CCC#N`, the ED250 in data set [3] was found to be 4.8 µmol/kg.
On to `CC(C)(N)C(=O)N[C@H](COCc1ccccc1)c1nnn(CC(C#N)Cc2ccccc2)n1` (mixture of isomers), for which the inhibition constant Ki in data set [1] is > 5000 nM. The EC50 in data set [2] came to 2470 nM.
`CC(C)(N)C(=O)N[C@H](COCc1ccccc1)c1nnnn1[C@H](CC#N)COc1ccccc1O` displayed a Ki in [1] of 5.7 nM. The EC50 in data set [2] worked out at 0.3 nM. In addition, the ED250 in [3] is <0.15 µmol/kg. Further, the IC50 in data set [6] was > 66000 nM; in data set [7], > 66000 nM; in [8] it was 42000 nM; in [9] it was 5100 nM; in [10], 9800 nM; in [11], 5500 nM.
Consider `CC(C)(N)C(=O)N[C@H](COCc1ccccc1)c1nnnn1[C@@H](CC#N)COc1ccccc1`, for which the Ki in data set [1] stood at 197 nM. In addition, the concentration giving a half-maximal response (EC50) in [2] was 19 nM.
Molecule `CC(C)(N)C(=O)N[C@H](COCc1ccccc1)c1nnnn1CCC(C#N)c1ccccc1` (mixture of isomers) gave a Ki in data set [1] of 611 nM. Moreover, in [2], the EC50 is 27 nM.
In [1], `CC(C)(N)C(=O)N[C@H](COCc1ccccc1)c1nnnn1C(CC#N)COc1ccccc1F` (single isomer, unassigned; diastereomer 1) registered a Ki of 18 nM. Also, the EC50 in [2] stood at 0.6 nM.
The corresponding values for `CC(C)(N)C(=O)N[C@H](COCc1ccccc1)c1nnn(C(CC#N)CCc2ccccc2)n1` (single isomer, unassigned; diastereomer 1) are 2560 nM and 150 nM.
The corresponding values for `CC(C)(N)C(=O)N[C@H](COCc1ccccc1)c1nnn(C(CC#N)CCc2ccccc2)n1` (single isomer, unassigned; diastereomer 2) are 3940 nM and 244 nM.
Take `CC(C)(N)C(=O)N[C@H](COCc1ccccc1)c1nnnn1C(CC#N)CCc1ccccc1` (single isomer, unassigned; diastereomer 1): the inhibition constant Ki in data set [1] worked out at 63 nM. For the same molecule, the EC50 in [2] is 0.8 nM. Besides, the ED250 in [3] stood at 1.7 µmol/kg.
The corresponding values for `CC(C)(N)C(=O)N[C@H](COCc1ccccc1)c1nnnn1C(/C=C/c1ccccc1)CC#N` (single isomer, unassigned; diastereomer 1) are 12 nM, 0.5 nM and >2 µmol/kg.
The corresponding values for `CC(C)(N)C(=O)N[C@H](COCc1ccccc1)c1nnnn1[C@H](CC#N)COc1ccccc1` are 7.5 nM, 0.4 nM and 0.87 µmol/kg.
Consider `CC(C)(N)C(=O)N[C@H](COCc1ccccc1)c1nnnn1C(/C=C/c1ccccc1)CC#N` (single isomer, unassigned; diastereomer 2), for which, in [1], the affinity, expressed as Ki, was 737 nM. The EC50 in data set [2] amounted to 62 nM.
In data set [1], `CC(C)(N)C(=O)N[C@H](COCc1ccccc1)c1nnn(C(/C=C/c2ccccc2)CC#N)n1` (single isomer, unassigned; diastereomer 2) had a Ki of 2510 nM. For the same molecule, in [2], the EC50 turned out to be 202 nM.
In the same order, the values of `CC(C)(N)C(=O)N[C@H](COCc1ccccc1)c1nnn(CCC(C#N)c2ccccc2)n1` (mixture of isomers) are > 5000 nM and 302 nM.
In the same order, the values of `CC(C)(N)C(=O)N[C@H](COCc1ccccc1)c1nnnn1CC(C#N)Cc1ccccc1` (mixture of isomers) are 298 nM and 22 nM.
Regarding `CC(C)(N)C(=O)N[C@H](COCc1ccccc1)c1nnn(C(/C=C/c2ccccc2)CC#N)n1` (single isomer, unassigned; diastereomer 1), affinity in data set [1] was put at a Ki of 453 nM. The EC50 in data set [2] amounted to 19 nM.
In the same order, the values of `CC(C)(N)C(=O)N[C@H](COCc1ccccc1)c1nnnn1C(CC#N)CCc1ccccc1` (single isomer, unassigned; diastereomer 2) are 1380 nM and 139 nM.
